Data published in article PMC2532997, “Methoxylation enhances stilbene bioactivity in Caenorhabditis elegans” (BMC Pharmacology, 2008).

Experiments:
[1] = tested on: C. elegans fem-1(hc17) sterile adults; assay: Adult survival assay of sterile fem-1(hc17) adults on compound-supplemented medium; format: in vivo, Caenorhabditis elegans
Description: For survival assays, young adult (day 0) animals were transferred onto fresh medium supplemented with the test compound at a range of concentrations. The compounds were tested at indicated concentrations in the growth medium (below). C. elegans nematodes are surrounded by a thick collagenous cuticle and are therefore relatively impermeable to environmental compounds. […] Survival was scored every 2–3 days as the ability to move in response to a gentle mechanical stimulus. During the first week of adulthood, C. elegans hermaphrodites are reproductively competent and normally produce 200–300 progeny. Since progeny production would complicate survival analysis, these experiments were performed using fem-1(hc17) animals that are sterile due to a spermatogenesis defect.
Resveratrol and picetannol were obtained from commercial sources (Sigma-Aldrich, Inc. and Calbiochem-Novobiochem Corp., respectively). The methoxylated stilbenes pinostilbene, desoxyrhapontigenin, 3-hydroxy-5,4'-dimethoxystilbene and pterostilbene (Figure 1) were synthesized by partial methylation of trans-resveratrol as previously reported. The methoxylated stilbenes were purified by preparative layer chromatography (Merck Silica gel 60 F254; EMD Chemicals Inc., Gibbstown, NJ) using the developing solvent chloroform:methanol (96:4) with 1% formic acid. […] These stilbenes were identified from their ^1H-NMR spectra (Bruker 400 MHz; Bruker, Billerica, MA). All stilbenes were dissolved in ethanol to 25 mg/mL before use. 5-Fluoro-deoxyuracil (Sigma Chemical Co.) was dissolved to 1 mg/mL in sterile water and stored frozen at -20°C until use. For treating C. elegans adults, each compound was added in a 200 μL volume to the top of a 1-day old bacterial lawn grown on NGM medium to final concentrations as indicated. Compounds were allowed 2 hours to diffuse through the agar medium before animals were added.
For survival analyses, synchronized populations of sterile fem-1(hc17) hermaphrodites were obtained by first transferring several fertile hermaphrodites to a fresh plate at 25°C and allowing them to lay eggs for several hours. The parent hermaphrodites were removed and embryos were allowed to develop into sterile adults at 25°C, which takes approximately 48 hours. On the first day of adulthood, referred to as day 0, sterile adults were transferred onto fresh media supplemented with stilbenes at indicated concentrations, and maintained at 25°C. Adult survival was scored every 2–3 days by the animal's ability to move in response to a gentle mechanical stimulus. Statistical analysis of survival was performed using the JMP software package.

[2] = tested on: gld-1(q485) germline tumors; assay: Germline tumor growth assay (DAPI-stained tumor area); format: in vivo, Caenorhabditis elegans; settings: 100 μM dose, four days treatment
Description: To assess the effects of methoxylation on antitumor activity in vivo, tumor area was measured in gld-1(q485) adults treated for four days with either resveratrol trimethylether, desoxyrhapontigenin or pterostilbene, which are methoxylated and toxic to adults, or resveratrol, which is hydroxylated and nontoxic. As controls, germline tumor area was also measured in animals treated with carrier only (ethanol) or with 5-fluoro-2'-deoxyuradine (FUDR), a thymidylate synthetase inhibitor that blocks cell proliferation. […] After four days of treatment, animals were collected and germline tumors were visualized by DAPI staining to visualize germcell nuclei. Because the level of DAPI staining was not quantitative between animals, we DAPI signal intensity was not used as a measure of tumor size. Rather, tumor size was directly measured as the area of the DAPI-stained gonad.
Resveratrol and picetannol were obtained from commercial sources (Sigma-Aldrich, Inc. and Calbiochem-Novobiochem Corp., respectively). The methoxylated stilbenes pinostilbene, desoxyrhapontigenin, 3-hydroxy-5,4'-dimethoxystilbene and pterostilbene (Figure 1) were synthesized by partial methylation of trans-resveratrol as previously reported. The methoxylated stilbenes were purified by preparative layer chromatography (Merck Silica gel 60 F254; EMD Chemicals Inc., Gibbstown, NJ) using the developing solvent chloroform:methanol (96:4) with 1% formic acid. The Rf values for pterostilbene, 3-hydroxy-5,4'-dimethoxystilbene, pinostilbene and desoxyrhapontigenin are 0.61, 0.57, 0.28, and 0.20, respectively. These stilbenes were identified from their ^1H-NMR spectra (Bruker 400 MHz; Bruker, Billerica, MA). All stilbenes were dissolved in ethanol to 25 mg/mL before use. 5-Fluoro-deoxyuracil (Sigma Chemical Co.) was dissolved to 1 mg/mL in sterile water and stored frozen at -20°C until use. For treating C. elegans adults, each compound was added in a 200 μL volume to the top of a 1-day old bacterial lawn grown on NGM medium to final concentrations as indicated. Compounds were allowed 2 hours to diffuse through the agar medium before animals were added.
The gld-1(q485) mutation causes a defect in oocyte development that results in growth of germline tumors that fill the somatic gonad, eventually leading to the animal's death. To examine the effects of the stilbenes on gld-1(q485) germline tumors, day 0 adults were placed on stilbene-containing medium in the presence of OP50 bacteria as food source. After 4 days at 20°C, animals were fixed in methanol and germcell nuclei were visualized by staining with DAPI. Images were collected with the entire animal in view using the 4× objective on a Nikon E800 microscope equipped with a Hamamatsu Orca ER CCD camera using OpenLab imaging software. NIH Image J software was used to measure germline tumor growth in treated and untreated animals. Tumor area was measured by outlining the entire DAPI-stained tumor.

COc1ccc(/C=C/c2cc(OC)cc(OC)c2)cc1 [Resveratrol-trimethylether, resveratrol-trimethylether]
Mean lifespan, Treated ([1]; Trial 1, 100 μM in medium, from day 0 of adulthood, 25°C, control 12.16 days): 9.7 days
Relative survival ([1]; Trial 1, 100 μM, treated vs control mean lifespan): 80%
Relative survival ([1]; Trial 4, 20 μM): 69%
Mean lifespan, Treated ([1]; Trial 4, 20 μM, control 11.26 days): 7.72 days
Relative survival ([1]; Trial 4, 40 μM): 69%
Mean lifespan, Treated ([1]; Trial 4, 40 μM, control 11.26 days): 7.72 days
Relative survival ([1]; Trial 4, 100 μM): 64%
Mean lifespan, Treated ([1]; Trial 4, 100 μM, control 11.26 days): 7.18 days
Relative survival ([1]; Trial 5, 5 μM): 102%
Mean lifespan, Treated ([1]; Trial 5, 5 μM, control 18.49 days): 18.83 days
Relative survival ([1]; Trial 5, 20 μM): 89%
Mean lifespan, Treated ([1]; Trial 5, 20 μM, control 18.49 days): 16.41 days
Relative survival ([1]; Trial 5, 100 μM): 82%
Mean lifespan, Treated ([1]; Trial 5, 100 μM, control 18.49 days): 15.18 days
Relative survival ([1]; Trial 6, 20 μM): 59%
Mean lifespan, Treated ([1]; Trial 6, 20 μM, control 15.32 days): 9.02 days
Relative survival ([1]; Trial 6, 40 μM): 52%
Mean lifespan, Treated ([1]; Trial 6, 40 μM, control 15.32 days): 7.98 days
Relative survival ([1]; Trial 6, 100 μM): 49%
Mean lifespan, Treated ([1]; Trial 6, 100 μM, control 15.32 days): 7.54 days
effect on tumor size (in words) [2]: consistent reductions in tumor size
